According to patent US5639726A, “Peptide mediated enhancement of thrombolysis methods and compositions” (The Regents of the University of Michigan, priority 1994, dated 1997):
Ends that are not written are not given here.

Tests used:
PAI-1 [1] = target: T1, PAI-1 (Homo sapiens, UniProt P05121); test: Kinetics of peptide annealing: residual PAI inhibitory activity assayed with β-trypsin and S-2222; type: biochemical; conditions: peptide 5.5 mM; 25° C.
T1 construct: made in house; host or cells: E. coli (vector pET3a)
Protocol: PAI-1 (6.4 μM) was incubated with increasing concentrations of each peptide at 23° C. and the (T1/2) of PAI-1 inactivation was determined by measuring the PAI-1 activity remaining over time.
Peptides were dissolved in 1 mM HCl+1% TWEEN-80 (the three PAI peptides) (SEQ ID NOS: 1-3), or in 0.1M HEPES (SEQ ID NOS: 4-5), 0.1M NaCl, 0.1% PEG-8000, pH […] (the two consensus peptides). Peptides were annealed to active PAI by incubation of active PAI in 0.1M HEPES, 0.1M NaCl, 0.1% PEG-8000, pH 7.4 with a peptide in its solvent. Ten percent of the final incubation mixture consisted of the peptide solvent. Incubation was carried out at 25° C. until no PAI inhibitory activity remained as determined by kinetics rate assays with trypsin, described below. The final concentration of PAI in the incubation mixture was either 0.9 μM (for kinetics assays) or 6.3 μM (for gels and purification). The peptide concentrations varied greatly due to the individual solubilities and rates of insertion of each peptide. These concentrations are given in the legends of the appropriate figures.
During annealing of 0.9 μM PAI with a peptide, the residual inhibitory activity of PAI was measured after varying incubation times by assaying an aliquot of the sample with β-trypsin. Trypsin (1 nM final concentration) was added to the chromogenic substrate S-2222 (950 μM) with 27 nM PAI sample. The absorbance at 405 nm was measured continuously for at least 12.5 min in a Shimadzu UV-265 UV-visible spectrophotometer. The pseudo-first order rate constant of trypsin is an indirect measure of the amount of PAI that has lost inhibitory activity due either to annealing or to becoming latent. The rate constant of controls containing the peptide solvent but no peptide was subtracted from that of the experimental assays in order to correct for the effect of the simultaneous change of PAI from the active to the latent state.

PAI-1 [2] = target: T1, PAI-1; test: Thermal denaturation of peptide treated PAI-1; conditions: FIG. 4
Excerpt: Circular dichroism (CD) spectra analysis (Strandberg et al., 1991) indicated similar secondary structural components for the PAI-1 mutants, as well as active and latent wild-type PAI-1.
(Lawrence et al., 1994c). […] As expected, active PAI-1 was much less thermally stable than latent PAI-1 or elastase cleaved PAI-1 (FIG. 4). […] This is precisely the behavior expected for a serpin with a peptide intercalated into β-sheet A (Carrell et al., 1991; Schulze et al., 1990; Bjork et al., 1992). […] If the 14 residue peptide were intercalated into β-sheet A, then the added length of the peptide bound to sheet A would be expected to increase the stability not decrease it.
Upon completion of peptide annealing, the incubation solution contained a mixture of annealed PAI-peptide, latent PAI, and excess peptide. For circular dichroism (CD) spectra, melting curves, and mass spectroscopy determinations, the excess peptide was removed. This was done by loading the mixture on a heparin-sepharose column which had been equilibrated with 0.05M sodium phosphate, 0.15M NaCl, 1 mM EDTA, 0.01% TWEEN-80, pH 6.6. Washing the column with this buffer removed the excess peptide. The PAI-peptide and latent PAI were eluted together with 0.05M Sodium phosphate, 1M NaCl, 1 mM EDTA, 0.01% TWEEN-80, pH 6.6. […] The absorbance at 280 nm was used to determine the final protein concentration. […]

fibrin clot = test: In vitro clot lysis assay, fluorescein-labeled fibrin clots with recombinant PAI-1; type: biochemical, human
Protocol: Clot lysis assays were performed as previously described (Fay et al., 1994). A mixture of glu-plasminogen (0.2 μM), fluorescein-labeled fibrinogen (3 μM), PAI-1 (0.7 μM) was prepared. t-PA (20 nM) was added 30 minutes after clot formation and clot lysis was allowed to occur for 60 minutes at 37° C., after which the tubes were centrifuged (16,000×3 min), and 80 μL of the supernatant was removed and diluted into 1.2 mL of 10 mM Tris-HCl, 140 mM NaCl, pH 7.5. The fluorescence of this dilution was measured and % clot lysis was calculated, as previously described (Fay et al., 1994). The capacity of P1-P14 peptide to accelerate fibrinolysis in vitro, both in the absence and presence of platelets was also evaluated. Fluorescein-labeled fibrin clots were formed in the presence of recombinant PAI-1 (0.7 μM) and either P1-P14 peptide (55 μM), an irrelevant 14 amino acid peptide (55 μM), or no peptide. After 30 min at 37° C., fibrinolysis was initiated by the addition of t-PA (20 nM), and % clot lysis was determined 60 min later. Addition of P1-P14 peptide increased clot lysis from 28±7% to 90±6% (mean±SEM of triplicate experiments), whereas the control peptide had no effect on clot lysis either in the presence or absence of PAI-1 (FIG. 6a). In similar experiments, platelet-rich clots were formed by clotting fluorescein-labeled fibrinogen in the presence of 2.5×10^8 platelets/mL, and fibrinolysis was initiated by the addition of t-PA (75 pM).

PAI-1 [3] = target: T1, PAI-1; test: Kinetics of peptide annealing: residual PAI inhibitory activity assayed with β-trypsin and S-2222; type: biochemical; conditions: for k / kobs / t1/2 of PAI-1 inactivation: 25° C.

T1 sequence (P05121 24-402): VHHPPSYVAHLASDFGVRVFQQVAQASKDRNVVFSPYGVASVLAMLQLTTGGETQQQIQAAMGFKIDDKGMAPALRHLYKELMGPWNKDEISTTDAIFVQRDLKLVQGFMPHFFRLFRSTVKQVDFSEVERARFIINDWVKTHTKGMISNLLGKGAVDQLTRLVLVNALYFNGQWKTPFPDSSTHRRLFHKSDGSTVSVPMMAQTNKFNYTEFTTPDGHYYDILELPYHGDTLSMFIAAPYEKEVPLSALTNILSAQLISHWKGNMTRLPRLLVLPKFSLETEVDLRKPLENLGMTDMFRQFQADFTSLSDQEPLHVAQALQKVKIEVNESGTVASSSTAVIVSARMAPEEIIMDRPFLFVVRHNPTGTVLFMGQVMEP

Ac-TVASSSTAVIVSAR [SEQ ID NO: 1, Thr-Val-Ala-Ser-Ser-Ser-Thr-Ala-Val-Ile-Val-Ser-Ala-Arg]
k (PAI-1 [1]): .014 M⁻¹ s⁻¹ | thermal stability of peptide treated PAI-1 (PAI-1 [2]): very similar to latent PAI-1 | dependence of the degree of clot lysis on peptide concentration (fibrin clot): proportional | inhibition of PAI-1 function in the presence of fibrin (fibrin clot): nearly completely inhibited | effect on clot lysis in the absence of PAI-1 (fibrin clot; absence of PAI-1): no augmentation of fibrinolysis | clot lysis at 60 minutes (fibrin clot; presence of PAI-1 (0.7 μM), peptide 55 μM, t-PA 20 nM, 28±7% without peptide): 90±6% | half-life of PAI inactivation (PAI-1 [3]; 0.9 μM PAI, 64 μM peptide): 4.3 min | k (PAI-1 [3]; peptide 1.5 mM): .022 M⁻¹ s⁻¹ | kobs (PAI-1 [3]; peptide 1.5 mM): .12 h⁻¹ | t1/2 of PAI-1 inactivation (PAI-1 [3]; peptide 1.5 mM): 5.8 h | k (PAI-1 [3]; peptide 3.5 mM): .020 M⁻¹ s⁻¹ | kobs (PAI-1 [3]; peptide 3.5 mM): .25 h⁻¹ | t1/2 of PAI-1 inactivation (PAI-1 [3]; peptide 3.5 mM): 2.7 h | kobs (PAI-1 [3]; peptide 5.5 mM): .28 h⁻¹ | t1/2 of PAI-1 inactivation (PAI-1 [3]; peptide 5.5 mM): 2.5 h | k (PAI-1 [3]; peptide 7 mM): .012 M⁻¹ s⁻¹ | kobs (PAI-1 [3]; peptide 7 mM): .31 h⁻¹ | t1/2 of PAI-1 inactivation (PAI-1 [3]; peptide 7 mM): 2.2 h | k (PAI-1 [3]; peptide 9 mM): .017 M⁻¹ s⁻¹ | kobs (PAI-1 [3]; peptide 9 mM): .54 h⁻¹ | t1/2 of PAI-1 inactivation (PAI-1 [3]; peptide 9 mM): 1.3 h
